# From ChEMBL document CHEMBL1144019 (Bioorg Med Chem, 2008)
# Legend:
# [1] = Stability in presence of AmpC beta-lactamase; format: ADME
# [2] = tested on: Haemophilus influenzae; assay: Antibacterial activity against beta-lactamase negative ampicillin-resistant Haemophilus influenzae SR-11435 by standard serial agar dilution method; format: functional
# [3] = tested on: Escherichia coli; assay: Antibacterial activity against Escherichia coli SR-21003 by standard serial agar dilution method; format: functional
# [4] = tested on: Moraxella catarrhalis; assay: Antibacterial activity against Moraxella catarrhalis ATCC 43617 by standard serial agar dilution method; format: functional
# [5] = tested on: Staphylococcus aureus; assay: Antibacterial activity against Staphylococcus aureus Smith by standard serial agar dilution method; format: functional
# [6] = tested on: Pseudomonas aeruginosa; assay: Antibacterial activity against Pseudomonas aeruginosa SR-5393 by standard serial agar dilution method; format: functional
# [7] = tested on: Escherichia coli; assay: Antibacterial activity against Toho 2 producing Escherichia coli by standard serial agar dilution method; format: functional
# [8] = tested on: Pseudomonas aeruginosa; assay: Antibacterial activity against Pseudomonas aeruginosa SR24 by standard serial agar dilution method; format: functional
# [9] = tested on: Haemophilus influenzae; assay: Antibacterial activity against Haemophilus influenzae ATCC 49766 by standard serial agar dilution method; format: functional
# [10] = tested on: Pseudomonas aeruginosa; assay: Antibacterial activity against AmpC hyperproducing Pseudomonas aeruginosa SR24-12 by standard serial agar dilution method; format: functional
# [11] = tested on: Pseudomonas aeruginosa; assay: Antibacterial activity against imipenem-resistant Pseudomonas aeruginosa SR-6554 by standard serial agar dilution method; format: functional
# [12] = tested on: Streptococcus pneumoniae; assay: Antibacterial activity against penicillin-resistant Streptococcus pneumoniae SR-16675 by standard serial agar dilution method; format: functional
# [13] = tested on: Enterobacter cloacae; assay: Antibacterial activity against AmpC producing Enterobacter cloacae SR-4321 by standard serial agar dilution method; format: functional
# [14] = tested on: Enterobacter cloacae; assay: Antibacterial activity against Enterobacter cloacae ATCC 13047 by standard serial agar dilution method; format: functional
SMILES,Stability [1] [%],MIC [2] [µg/mL],MIC [3] [µg/mL],MIC [4] [µg/mL],MIC [5] [µg/mL],MIC [6] [µg/mL],MIC [7] [µg/mL],MIC [8] [µg/mL],MIC [9] [µg/mL],MIC [10] [µg/mL],MIC [11] [µg/mL],MIC [12] [µg/mL],MIC [13] [µg/mL],MIC [14] [µg/mL]
CO/N=C(\C(=O)N[C@@H]1C(=O)N2C(C(=O)[O-])=C(C[N+]3(C)CCCC3)CS[C@H]12)c1csc(N)n1,12.9,0.5,0.063,0.5,2,4,4,0.5,0.032,32,64,2,,
C[C@H](O/N=C(\C(=O)N[C@@H]1C(=O)N2C(C(=O)[O-])=C(C[n+]3cccc4c3ccn4C)CS[C@H]12)c1nc(N)sc1Cl)C(=O)O,,0.032,0.125,0.016,1,2,1,0.5,0.016,4,16,2,1,0.25
CC(=O)NCCn1ccc2c1ccc[n+]2CC1=C(C(=O)[O-])N2C(=O)[C@@H](NC(=O)/C(=N\O[C@@H](C)C(=O)O)c3nc(N)sc3Cl)[C@H]2SC1,,0.125,0.25,0.032,4,4,2,2,0.032,8,16,4,4,0.5
C[C@H](O/N=C(\C(=O)N[C@@H]1C(=O)N2C(C(=O)[O-])=C(C[n+]3cccc4c3ccn4CCOC(N)=O)CS[C@H]12)c1nc(N)sc1Cl)C(=O)O,,0.063,0.25,0.032,2,2,2,0.5,0.032,4,8,2,2,0.25
CNCCNc1cc[n+](CC2=C(C(=O)[O-])N3C(=O)[C@@H](NC(=O)/C(=N\O[C@@H](C)C(=O)O)c4nc(N)sc4Cl)[C@H]3SC2)cc1,80.3,0.25,0.5,0.032,4,2,4,0.5,0.125,4,16,4,4,0.5
C[C@H](O/N=C(\C(=O)N[C@@H]1C(=O)N2C(C(=O)[O-])=C(C[n+]3cccc4c3ccn4CC(N)=O)CS[C@H]12)c1nc(N)sc1Cl)C(=O)O,,0.063,0.25,0.016,2,4,2,1,0.032,4,16,2,4,0.5
